Source: ChEMBL document CHEMBL1201862, “PubChem BioAssay data set” (2004)
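How tested: cells in 96-well plates exposed to compound for 48 hours at five concentrations. GI50 = concentration required for 50% inhibition of growth.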 Active and inactive are the calls of the source. No stated cut-off is given here; in the data, active = GI50 up to about 1.1 µM and inactive = higher.

How the values were obtained:
Assay in all cases: inhibition of tumour cell growth, NCI panel, 48 h
A549 = tested on: A549
CAKI-1 = tested on: CAKI-1
EKVX = tested on: EKVX
HL-60 = tested on: HL-60
HT-29 = tested on: HT-29
IGROV-1 = tested on: IGROV-1
KM12 = tested on: KM12
M14 = tested on: M14
MDA-MB-231 = tested on: MDA-MB-231
OVCAR-4 = tested on: OVCAR-4
SF-268 = tested on: SF-268
SF-539 = tested on: SF-539
SK-MEL-28 = tested on: SK-MEL-28
SNB-19 = tested on: SNB-19
SW-620 = tested on: SW-620
U-251 = tested on: U-251
UACC-257 = tested on: UACC-257
UACC-62 = tested on: UACC-62
SNB-75 = tested on: SNB-75

Measured: GI50

CCOC(=O)C1(C(=O)OCC)C=C(c2ccccc2)N(C2OC(COC(C)=O)C(OC(C)=O)C(OC(C)=O)C2OC(C)=O)C1=S (stereo not given)
inactive: A549 59.2 µM | CAKI-1 > 100 µM | EKVX > 100 µM | HL-60 22.9 µM | HT-29 > 100 µM | IGROV-1 > 100 µM | KM12 45.6 µM | M14 56.5 µM | MDA-MB-231 > 100 µM | OVCAR-4 51.6 µM | SF-268 > 100 µM | SF-539 > 100 µM | SK-MEL-28 > 100 µM | SNB-19 > 100 µM | SW-620 > 100 µM | U-251 > 100 µM | UACC-257 90.4 µM | UACC-62 57.7 µM

CN(c1ccccc1)S(=O)(=O)c1ccc([N+](=O)[O-])cc1
inactive: A549 > 100 µM | CAKI-1 > 100 µM | EKVX > 100 µM | HL-60 57 µM | HT-29 69.5 µM | KM12 46.5 µM | M14 55.7 µM | MDA-MB-231 79.3 µM | OVCAR-4 > 100 µM | SF-268 > 100 µM | SF-539 > 100 µM | SK-MEL-28 > 100 µM | SNB-19 > 100 µM | SW-620 > 100 µM | U-251 > 100 µM | UACC-257 92.5 µM

COc1ccc2c(c1)/C(=C\c1c(-c3ccccc3)nc3n1CCS3)C(=O)N2
inactive: A549 5.57 µM | CAKI-1 4.99 µM | EKVX 12.8 µM | HL-60 3.04 µM | HT-29 3.71 µM | IGROV-1 4.92 µM | KM12 3.33 µM | M14 6.9 µM | MDA-MB-231 4.03 µM | SF-268 9.2 µM | SF-539 5.9 µM | SK-MEL-28 11.1 µM | SNB-19 49.7 µM | SNB-75 12.8 µM | SW-620 2.99 µM | U-251 7.28 µM | UACC-257 12.2 µM | UACC-62 4.83 µM

Cc1ccc2c(=O)cc(Cc3cccs3)[nH]c2n1
inactive: A549 > 100 µM | CAKI-1 > 100 µM | EKVX > 100 µM | HL-60 > 100 µM | HT-29 > 100 µM | IGROV-1 > 100 µM | KM12 > 100 µM | M14 > 100 µM | MDA-MB-231 > 100 µM | OVCAR-4 > 100 µM | SF-268 > 100 µM | SK-MEL-28 > 100 µM | SNB-19 > 100 µM | SNB-75 95.5 µM | SW-620 > 100 µM | U-251 > 100 µM | UACC-257 > 100 µM | UACC-62 > 100 µM

COc1cc2c(cc1OC)C13CCN4CC5CCOC6CC(=O)N2C1C6C5CC43 (stereo not given)
inactive: A549 > 100 µM | CAKI-1 > 100 µM | EKVX > 100 µM | HL-60 > 100 µM | HT-29 > 100 µM | IGROV-1 > 100 µM | KM12 > 100 µM | M14 > 100 µM | MDA-MB-231 > 100 µM | OVCAR-4 > 100 µM | SF-268 > 100 µM | SF-539 > 100 µM | SK-MEL-28 > 100 µM | SNB-19 > 100 µM | SW-620 > 100 µM | U-251 > 100 µM | UACC-257 > 100 µM | UACC-62 > 100 µM

S=C(c1c[nH]c2ccccc12)N1CCOCC1
active: SNB-75 0.52 µM
inactive: CAKI-1 > 100 µM | EKVX 43.1 µM | HL-60 > 100 µM | HT-29 > 100 µM | IGROV-1 36.3 µM | KM12 > 100 µM | M14 > 100 µM | MDA-MB-231 > 100 µM | SF-268 14.1 µM | SF-539 > 100 µM | SK-MEL-28 > 100 µM | SNB-19 > 100 µM | SW-620 > 100 µM | U-251 > 100 µM | UACC-257 > 100 µM | UACC-62 > 100 µM

CC(=O)Nc1nnc(S(C)(=O)=O)s1
inactive: A549 > 100 µM | EKVX > 100 µM | HL-60 > 100 µM | HT-29 > 100 µM | KM12 > 100 µM | M14 > 100 µM | SF-268 > 100 µM | SF-539 > 100 µM | SK-MEL-28 > 100 µM | SNB-19 > 100 µM | SW-620 > 100 µM | U-251 > 100 µM | UACC-257 > 100 µM

OC(CN(CCCl)CCCl)C(O)C(O)C(O)CN(CCCl)CCCl (stereo not given)
inactive: A549 > 100 µM | CAKI-1 > 100 µM | EKVX > 100 µM | HL-60 5.04 µM | HT-29 > 100 µM | IGROV-1 > 100 µM | KM12 > 100 µM | M14 > 100 µM | MDA-MB-231 > 100 µM | SF-268 41.6 µM | SF-539 52.4 µM | SK-MEL-28 > 100 µM | SNB-19 > 100 µM | SW-620 > 100 µM | U-251 37.4 µM | UACC-257 > 100 µM | UACC-62 12.4 µM
